Source: publication PMC9097471, “Development of Selective Phosphatidylinositol 5-Phosphate 4-Kinase γ Inhibitors with a Non-ATP-competitive, Allosteric Binding Mode” (Journal of Medicinal Chemistry, 2022)
Converted amounts (≈) assume the structure as drawn. Where two headings read alike, the source gives them in different places.

Experiments:
PI5P4Kγ-WT [1] = target: T1, PI5P4Kγ-WT (Homo sapiens, UniProt Q8TBX8); assay: InCell Pulse cellular target engagement (thermal stabilisation) in HEK293 cells; type: cell-based; settings: InCell Pulse, new data
T1 sequence (Q8TBX8 1-421): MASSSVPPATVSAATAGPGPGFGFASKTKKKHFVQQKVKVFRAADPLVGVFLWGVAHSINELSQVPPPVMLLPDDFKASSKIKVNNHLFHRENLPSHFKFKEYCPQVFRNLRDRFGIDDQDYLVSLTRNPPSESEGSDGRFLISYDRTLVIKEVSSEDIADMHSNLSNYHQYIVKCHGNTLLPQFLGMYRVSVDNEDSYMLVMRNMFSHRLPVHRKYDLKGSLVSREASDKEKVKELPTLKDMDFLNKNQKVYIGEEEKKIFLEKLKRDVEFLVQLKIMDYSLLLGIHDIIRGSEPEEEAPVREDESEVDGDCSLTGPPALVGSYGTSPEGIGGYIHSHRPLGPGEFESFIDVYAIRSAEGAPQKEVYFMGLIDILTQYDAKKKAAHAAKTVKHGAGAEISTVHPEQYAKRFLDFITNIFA
Method: The binding of compounds to PI5P4Kγ in intact cells was assessed using an InCell Pulse thermal stabilisation assay (DiscoverX). […] The plate was then incubated for 60 min in the dark prior to luminescence reading using a Pherastar FSX plate reader (BMG Labtech).
(§1) Statistical analysis was performed using nonparametric testing in Prism 8 (GraphPad). Activity pIC50 values and in vivo binding pEC50 values were estimated using a 4-parameter fit (Dotmatics).

PI5P4Kβ-WT = target: T2, PI5P4Kβ-WT (Homo sapiens, UniProt P78356); assay: ADP-Glo inhibition assay; settings: for PI5P4Kβ pIC50: ADP-Glo
T2 sequence (P78356 1-416): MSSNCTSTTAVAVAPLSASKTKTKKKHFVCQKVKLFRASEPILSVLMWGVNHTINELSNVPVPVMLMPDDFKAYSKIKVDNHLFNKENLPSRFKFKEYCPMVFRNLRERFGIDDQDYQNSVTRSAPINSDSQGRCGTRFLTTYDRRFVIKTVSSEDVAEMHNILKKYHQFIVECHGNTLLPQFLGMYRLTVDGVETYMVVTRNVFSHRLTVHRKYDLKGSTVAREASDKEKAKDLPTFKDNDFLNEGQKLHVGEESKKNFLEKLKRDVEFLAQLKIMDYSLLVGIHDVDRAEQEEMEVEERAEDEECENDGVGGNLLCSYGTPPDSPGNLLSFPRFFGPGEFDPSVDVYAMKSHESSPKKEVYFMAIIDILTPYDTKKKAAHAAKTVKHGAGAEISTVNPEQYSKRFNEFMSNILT
From the text: (§2) To enable direct comparisons, Promega’s ADP-Glo reporter assay was developed using a mutant form of the kinase. […] To mitigate concerns about being misled by the use of the PI5P4Kγ+ construct and the possible introduction of PI5P4Kα activity into the molecules, our screening cascade included the measurement of ADP-Glo activity at PI5P4Kα-WT (and PI5P4Kβ-WT to fully understand emerging selectivity profiles).

PI5P4Kβ = target: T3, PI5P4Kβ (Homo sapiens, UniProt P78356); design: method as in ref 23 (a number printed in a supplementary file, which may have a reference list of its own: not looked up in the article's list); settings: KINOMEscan @ 10 μM; cited from earlier work
T3 sequence (P78356 1-416): T2 sequence (P78356 1-416)

PI5P4Kγ+ = target: T4, PI5P4Kγ+ (Homo sapiens, UniProt Q8TBX8, D138G/D197E/E133P/E135D/E153T/E196G/G136S/G139A/N195G/S132L/S134N); assay: ADP-Glo inhibition assay; type: biochemical; settings: for IC50: ADP-Glo
T4 construct: GST (N, cleaved yes); made in house; host or cells: E. coli BL21(DE3), pGEX6P
T4 sequence (Q8TBX8 with tags, fused parts or gaps INS131LPN/S132D/E133S/S134Q/E135A/G136R/D138G/G139A/E153T/N195G/E196G/D197E): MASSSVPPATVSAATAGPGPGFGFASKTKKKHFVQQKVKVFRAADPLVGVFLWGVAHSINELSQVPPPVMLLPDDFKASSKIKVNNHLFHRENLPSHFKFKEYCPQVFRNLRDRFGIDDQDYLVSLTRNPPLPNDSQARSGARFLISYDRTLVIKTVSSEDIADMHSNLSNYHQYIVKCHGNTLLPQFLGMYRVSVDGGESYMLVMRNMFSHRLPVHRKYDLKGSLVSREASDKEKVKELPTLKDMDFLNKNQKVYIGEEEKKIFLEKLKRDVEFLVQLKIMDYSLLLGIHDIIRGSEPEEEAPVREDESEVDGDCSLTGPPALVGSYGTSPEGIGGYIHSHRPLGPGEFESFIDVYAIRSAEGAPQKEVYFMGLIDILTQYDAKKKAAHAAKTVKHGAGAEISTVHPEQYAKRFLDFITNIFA
Method: Recombinant mutant PI5P4Kγ+ was prepared essentially as described previously.[25] […] Cultures were induced with 0.4 mM IPTG and probe sonicated in the presence of protease inhibitors. The GST fusion protein of PI5P4Kγ+ was harvested by binding to glutathione sepharose beads (Cytiva) and cleaved in situ with 50U of PreScission protease (Cytiva) for 4 h at 4 °C. The cleaved protein was further purified by size-exclusion chromatography (AKTA Pure, Cytiva). The protein purity was confirmed by sodium dodecyl sulphate–polyacrylamide gel electrophoresis, and the concentration was determined by colorimetric assay (Bio-Rad).
as §1

PI5P4Kα [2] = system: PI5P4Kα; design: method as in ref 23 (a number printed in a supplementary file, which may have a reference list of its own: not looked up in the article's list); settings: KINOMEscan @ 10 μM; cited from earlier work
PI5P4Kγ [3] = system: PI5P4Kγ; design: method as in ref 30 (1), ref 23 (2); settings: 32P-ATP/PI5P incorporation; ref 30 (1), ref 23 (2); cited from earlier work
PI5P4Kα-WT = target: T5, PI5P4Kα-WT (Homo sapiens, UniProt P48426); assay: ADP-Glo inhibition assay; settings: for PI5P4Kα pIC50: ADP-Glo
T5 sequence (P48426 1-406): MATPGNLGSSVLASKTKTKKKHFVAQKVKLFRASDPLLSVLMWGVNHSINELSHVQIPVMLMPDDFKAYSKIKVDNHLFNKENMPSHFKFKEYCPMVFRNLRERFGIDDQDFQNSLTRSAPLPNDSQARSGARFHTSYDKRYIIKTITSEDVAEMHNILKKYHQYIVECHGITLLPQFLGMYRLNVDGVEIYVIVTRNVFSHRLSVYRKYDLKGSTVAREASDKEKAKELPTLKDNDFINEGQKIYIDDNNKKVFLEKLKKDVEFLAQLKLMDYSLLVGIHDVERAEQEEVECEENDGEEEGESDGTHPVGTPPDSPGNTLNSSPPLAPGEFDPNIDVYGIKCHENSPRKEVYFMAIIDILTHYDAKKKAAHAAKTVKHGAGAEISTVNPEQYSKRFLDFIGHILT
From the text: as §2

PI5P4Kα [4] = settings: bioluminescence assay; cited from earlier work
Kinetic solubility = type: physicochemical; settings: PBS buffer, PBS pH 7.4
Method: Kinetic solubility analysis was performed by Charles River Laboratories Inc. (ADME-SOP-01). Compound in
DMSO at 10 mM was diluted to 200 µM in both DMSO and buffer (0.1 M PBS, pH 7.4, 2% DMSO final), and
an aliquot of the 200 µM DMSO solution was diluted to 10 µM, and all dilutions were equilibrated for 2 hours. […]
Compound 9 was purchased from Am binter (Amb16536894) and was determined by UPLC to have purity >95%.
All other compounds were synthesised as described below , and all tested compounds have purity >95% by UPLC

Plasma protein binding = type: in vitro ADME; settings: Mouse plasma protein binding; read-out: mPPB (converted)
Method: Plasma protein binding analysis was performed by Charles River Laboratories Inc. (ADME-SOP-90). Briefly, compounds in DMSO (10 µM, 0.5% DMSO final) were added to mouse plasma and dialysed against buffer for 4 hours at 37 °C. The compound concentration in each of the plasma and buffer compartments was determined by mass spectrometry and used to calculate the percentage compound bound. […]

PI5P4Kγ-WT [5] = target: T1, PI5P4Kγ-WT; assay: Thermal shift assay; settings: read-out: ΔTm PI5P4Kγ WT, thermal shift, compound 63 μM
[6] = Liver microsomal stability; type: in vitro ADME; settings: liver microsomes; Human liver microsomal hepatic stability; read-out: HLM t1/2
Caco-2 cell permeability = type: in vitro ADME; settings: human; for Papp A→B at 1 h, 10 µM: Caco-2, apical-to-basolateral
Method: Permeability: bi-directional Caco-2 cell permeability was performed by Charles River Laboratories Inc. (ADME-SOP-49). Briefly, compounds were administered at 10 µM (1% DMSO final) to the apical or basolateral side of a polarised Caco-2 cell monolayer, then incubated at 37 °C for 60 minutes before appearance on the opposite side of the monolayer was determined by mass spectrometry. The efflux ratio (ER) is calculated from the ratio of B-A […]

[7] = Chromatographic LogD (HPLC method); type: physicochemical; settings: pH 7.4, read-out: mchrom log D7.4
Method: 5-100% gradient of MeCN in 50mM NH4OAc in H 2O adjusted to pH 7.4. […]

PI5P4Kγ [8] = target: PI5P4Kγ; design: method as in Rosenthal 2011, Davis 2011, Karaman 2008, Klaeger 2017; settings: public kinase panel data; ref Rosenthal 2011, Davis 2011, Karaman 2008, Klaeger 2017; cited from earlier work
[9] = new data, read-out: PI5P4Kγ+ IC50
[10] = mutant PI5P4Kγ+ construct, read-out: PI5P4Kγ+ pIC50 (converted)

IC50 (PI5P4Kα-WT) [µM]	PI5P4Kβ pIC50 (PI5P4Kβ-WT)	solubility at 2 h (Kinetic solubility) [µM]	IC50 (PI5P4Kγ+; [10]) [µM]	fraction unbound at 4 h, 10 µM (Plasma protein binding)	PI5P4Kα pIC50 (PI5P4Kα-WT)	half-life at 1 µM [6] [min]	chromatographic logD [7]	SMILES	PI5P4Kγ pKD (PI5P4Kγ [8])	other results
	<4.6	9 (≈ 3.42 µg/mL)	3.16	< 0.01	<4.3	31		FC(F)(F)c1ccccc1-c1nc(NCc2ccccn2)c2ccccc2n1 [Compound 14]		ΔTm at 63 µM (PI5P4Kγ-WT [5]): 6.3 °C; Papp A→B at 1 h, 10 µM (Caco-2 cell permeability): 85 ×10⁻⁶ cm/s
	<4.6	< 5		< 0.01	<4.3	37	5.7	CC(C)c1ccccc1-c1nc(NCc2ccccn2)c2ccccc2n1 [Compound 22]		
	<4.6	113 (≈ 38.9 µg/mL)	10	0.03	<4.3	41	4.2	Cc1cnc(-c2ccccc2C(F)(F)F)nc1NCc1ccccn1 [Compound 35]		PI5P4Kγ+ LE (PI5P4Kγ+; ligand efficiency from PI5P4Kγ+ pIC50): 0.28; ΔTm at 63 µM (PI5P4Kγ-WT [5]): 3.9 °C; Papp A→B at 1 h, 10 µM (Caco-2 cell permeability): 106 ×10⁻⁶ cm/s; efflux ratio at 1 h, 10 µM (Caco-2 cell permeability; Caco-2 efflux ratio (B-A/A-B), read-out: ER): 0.5
	<4.6	6 (≈ 2.29 µg/mL)		0.01	<4.3	100	3.2	FC(F)(F)c1ccccc1-c1nc(NCc2ccccn2)c2cccnc2n1 [Compound 38]		
> 50.1			3.98					Cc1nc(CNc2ncnc3ccc(-c4ccc5c(c4)OCO5)cc23)cs1 [ML197, reference compound]	6.6	

The next lines start with the molecule.

SMILES	IC50 (PI5P4Kα-WT) [µM]	PI5P4Kβ pIC50 (PI5P4Kβ-WT)	solubility at 2 h (Kinetic solubility) [µM]	IC50 (PI5P4Kγ+; [10]) [µM]	fraction unbound at 4 h, 10 µM (Plasma protein binding)	PI5P4Kα pIC50 (PI5P4Kα-WT)	half-life at 1 µM [6] [min]	chromatographic logD [7]	PI5P4Kγ pKD (PI5P4Kγ [8])	other results
Cn1nnnc1Sc1ncnc2scc(-c3cccc(S(C)(=O)=O)c3)c12 [Compound 2, NCT-504]	2									IC50 (PI5P4Kγ-WT [1]): > 50 µM; IC50 (PI5P4Kβ-WT): > 25 µM; PI5P4Kβ % inh (PI5P4Kβ): <65% inh @ 10 uM (KINONMEscan); IC50 (PI5P4Kγ+; [9]): > 50 µM; PI5P4Kα % inh (PI5P4Kα [2]): <35% inh @ 10 uM (KINONMEscan); IC50 (PI5P4Kγ [3]): 16 µM
CN(C)C/C=C/C(=O)Nc1ccc(C(=O)Nc2cccc(Nc3cc(-c4c[nH]c5ccccc45)ncn3)c2)cc1 [Compound 3, THZ-P1-2]										IC50 (PI5P4Kγ-WT [1]): 1.3 µM; IC50 (PI5P4Kγ+; [9]): 0.13 µM; IC50 (PI5P4Kα [4]): 0.95 µM
Cc1ccc(-n2ccc3c(Nc4cccc(NC(=O)c5ccc(NC(=O)/C=C/CN(C)C)cc5)c4)ncnc32)cc1 [Compound 4]										IC50 (PI5P4Kα [4]): 1.3 µM
Cc1nc(CN(C)c2ncnc3ccc(-c4ccc5c(c4)OCO5)cc23)cs1 [ML106, reference compound]	> 50.1			10					6.4	
CC(=O)c1c(C)c2cnc(Nc3ccc(N4CCNCC4)cn3)nc2n(C2CCCC2)c1=O [Palbociclib, reference compound]									5.8	IC50 (PI5P4Kβ-WT): > 25.1 µM
